Data reported in ChEMBL document CHEMBL4610107, “Ene-yne Hydroquinones from a Marine-derived Strain of the Fungus Pestalotiopsis neglecta with Effects on Liver X Receptor Alpha” (J Nat Prod, 2020).

Molecular target: T1, Oxysterols receptor LXR-alpha (Homo sapiens, UniProt Q13133)
T1 sequence (Q13133 whole entry): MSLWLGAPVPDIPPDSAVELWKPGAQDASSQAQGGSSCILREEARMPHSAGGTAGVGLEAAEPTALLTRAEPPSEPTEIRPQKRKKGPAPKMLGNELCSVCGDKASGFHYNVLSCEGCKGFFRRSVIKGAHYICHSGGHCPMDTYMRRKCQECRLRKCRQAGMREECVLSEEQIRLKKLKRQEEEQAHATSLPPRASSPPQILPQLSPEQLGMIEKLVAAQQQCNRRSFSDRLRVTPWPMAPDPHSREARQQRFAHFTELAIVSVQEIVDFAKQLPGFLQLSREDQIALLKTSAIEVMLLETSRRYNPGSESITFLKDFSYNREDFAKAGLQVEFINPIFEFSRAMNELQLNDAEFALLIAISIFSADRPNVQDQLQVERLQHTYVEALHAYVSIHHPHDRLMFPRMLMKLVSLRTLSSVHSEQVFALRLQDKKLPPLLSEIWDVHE
Assay: Binding affinity to LXRalpha (unknown origin) by surface plasmon resonance assay; call rule not given here

With `O=C(O)Cc1cccc(OCCCN(Cc2cccc(C(F)(F)F)c2Cl)CC(c2ccccc2)c2ccccc2)c1` the Kd was “Not Active”.
